In paper PMC12652692, “Synthesis and In Vitro Anticancer Evaluation of Novel Phosphonium Derivatives of Chrysin” (International Journal of Molecular Sciences, 2025):

How the values were obtained:
Experiment in all cases: NCI60 five-dose screen
Type in all cases: cell-based
UO-31 = settings: Homo sapiens; UO-31, Renal Cancer
Method: (§1) Since all new conjugates (3a–h) had notable antiproliferative activities on several tumor cell lines in the course of the one-dose screening, they were subjected to a five-dose test. […] J. Mol. Sci. 2025, 26, 11063 10 of 10 S.3. NCI60 Screening A detailed description of the NCI screening procedures can also be found on the website of NCI [39], and in our previous work. S.3.1. One-Dose Screen All candidates were examined at first at a single high dose (10 μM) in the full NCI60 cell panel. The value reported for the one-dose test is growth relative to the no-drug control and relative to the time zero number of cells. This made possible the disclosure of both growth inhibition (numbers between 0 and 100) and lethality (numbers less than 0). For example, a value of 100 means no growth inhibition. A value of 20 would mean 80% growth inhibition. A value of 0 means no net growth over the course of the analysis. A value of −20 would mean 20% lethality. A value of −100 means all cells are dead. S.3.2. […] The human tumor cell lines of the cancer screening panel were grown in RPMI 1640 medium containing 5% fetal bovine serum and 2 mM l-glutamine. Characteristically, cells were injected in 96-well microtiter plates in 0.1 mL at plating densities ranging from 5000 to 40,000 cells/well, depending on the doubling time of individual cell lines. After cell inoculation, the microtiter plates were incubated at 37 °C, 5% carbon dioxide, 95% air, and 100% relative humidity for 24 hours before the addition of tested compounds. After 24 hours, 2 plates of each cell line were fixed in situ with Cl3COOH (TCA), to represent a measurement of the cell population for each cell line at the time of drug addition (tz). Tested compounds were solubilized in DMSO at 400-fold the desired final maximum test concentration and stored frozen before application. In the course of the drug addition, an aliquot of frozen concentrate was thawed and diluted to twice the desired final maximum test concentration with a complete medium containing 50 μg mL−1 gentamicin. Additional four, 10-fold or ½ log serial dilutions were produced to furnish a total of five drug concentrations plus control. Aliquots of 0.1 mL of these different drug dilutions were added to the appropriate microtiter wells already containing 0.1 mL of medium, resulting in the required final drug concentrations. Following drug addition, the plates were incubated at 37 °C, 5% carbon dioxide, 95% air, and 100% relative humidity for an additional 48 hours. For adherent cells, the test was finished by the addition of cold Cl3COOH. Cells were fixed in situ by the addition of 50 μL of cold 50% (w/v) Cl3COOH, and incubated at 4 °C for 1 hour. The supernatant was discarded, and the plates were washed with H2O (5×) and dried in air. Sulforhodamine B (SRB) solution (0.1 mL) at 0.4% (w/v) in 1% CH3COOH was added to each well, and plates were incubated at RT for 10 min. After staining, the unbound dye was removed by washing five times with 1% CH3COOH, and the plates were dried in the air. The bound stain is afterward solubilized with a 10 mM trizma base, and the absorbance is read on an automated plate reader at λ = 515 nm. Utilizing the seven absorbance measurements [time zero (tz), control growth (c), and test growth in the presence of the drug at the five concentration levels (ti)], the percentage growth was determined at each of the drug concentration levels. Growth inhibition (%) was calculated as: [(ti − tz)/(c − tz)] × 100, for concentrations where ti ≥ tz (1) [(ti − tz)/(tz)] × 100, for concentrations where ti < tz. (2) Three dose‒response parameters were calculated as follows. GI50 (growth inhibition of 50%) was determined from Equation (3), which is the drug concentration resulting in a 50% reduction in the net protein increase (as measured by SRB staining) in control cells in the course of the drug incubation. [(ti − tz)/(c − tz)] × 100 = 50 (3)

K-562 = settings: Homo sapiens, K562; K-562, Leukemia
Method: as §1

COLO 205 = settings: Homo sapiens; COLO 205, Colon Cancer
Method: as §1

EKVX = settings: Homo sapiens, Non-small-Cell Lung Cancer
Method: as §1

MDA-MB-435 = settings: Homo sapiens; MDA-MB-435, Melanoma
Method: as §1

BT-549 = settings: Homo sapiens; BT-549, Breast Cancer
Method: as §1

SN12C = settings: Homo sapiens, Renal Cancer
Method: as §1

HL-60(TB) = settings: Homo sapiens, Leukemia
Method: as §1

HCT-116 = settings: Homo sapiens; HCT-116, Colon Cancer
Method: as §1

RXF 393 = settings: Homo sapiens; RXF 393, Renal Cancer
Method: as §1

NCI-H522 = settings: Homo sapiens; NCI-H522, Non-small-Cell Lung Cancer
Method: as §1

OVCAR-3 = settings: Homo sapiens; OVCAR-3, Ovarian Cancer
Method: as §1

A549/ATCC = settings: Homo sapiens, Non-small-Cell Lung Cancer
Method: as §1

NCI-H460 = settings: Homo sapiens; NCI-H460, Non-small-Cell Lung Cancer
Method: as §1

PC-3 = settings: Homo sapiens; PC-3, Prostate Cancer
Method: as §1

ACHN = settings: Homo sapiens, Renal Cancer
Method: as §1

Compound | GI50 (UO-31) [nM] | GI50 (K-562) [nM] | GI50 (COLO 205) [nM] | GI50 (EKVX) [nM] | GI50 (MDA-MB-435) [nM] | GI50 (BT-549) [nM] | GI50 (SN12C) [nM] | GI50 (HL-60(TB)) [nM] | GI50 (HCT-116) [nM] | GI50 (RXF 393) [nM] | GI50 (NCI-H522) [nM] | GI50 (OVCAR-3) [nM] | GI50 (A549/ATCC) [nM] | GI50 (NCI-H460) [nM] | GI50 (PC-3) [nM] | GI50 (ACHN) [nM]
O=c1cc(-c2ccccc2)oc2cc(OCCCC[P+](c3ccccc3)(c3ccccc3)c3ccccc3)cc(O)c12 [3a] | 1240 | 216 | 1020 | 317 | 299 | 257 | 330 | 167 | 297 | 225 | 228 | 368 | 908 | 321 | 305 | 633
Cc1ccc([P+](CCCCOc2cc(O)c3c(=O)cc(-c4ccccc4)oc3c2)(c2ccc(C)cc2)c2ccc(C)cc2)cc1 [3b] | 177 | 137 | 419 | 275 | 238 | 344 | 389 | 140 | 248 | 333 | 274 | 196 | 393 | 357 | 182 | 265
COc1ccc([P+](CCCCOc2cc(O)c3c(=O)cc(-c4ccccc4)oc3c2)(c2ccc(OC)cc2)c2ccc(OC)cc2)cc1 [3c] | 1480 | 376 | 455 | 462 | 319 | 349 | 317 | 288 | 337 | 257 | 405 | 288 | 600 | 371 | 320 | 1280
O=c1cc(-c2ccccc2)oc2cc(OCCCC[P+](c3ccc(F)cc3)(c3ccc(F)cc3)c3ccc(F)cc3)cc(O)c12 [3d] | 1850 | 1400 | 1620 | 2230 | 1550 | 1610 | 2490 | 1340 | 1670 | 1820 | 1820 | 1420 | 3210 | 2130 | 1760 | 3230
O=c1cc(-c2ccccc2)oc2cc(OCCCC[P+](C3CCCCC3)(C3CCCCC3)C3CCCCC3)cc(O)c12 [3e] | 1610 | 402 | 812 | 1060 | 341 | 709 | 509 | 184 | 882 | 461 | 457 | 381 | 1330 | 957 | 501 | 1520
COc1c(C)cc([P+](CCCCOc2cc(O)c3c(=O)cc(-c4ccccc4)oc3c2)(c2cc(C)c(OC)c(C)c2)c2cc(C)c(OC)c(C)c2)cc1C [3f] | 277 | 34 | 791 | 309 | 296 | 280 | 313 | 78 | 256 | 191 | 221 | 334 | 314 | 304 | 276 | 371
Cc1ccccc1[P+](CCCCOc1cc(O)c2c(=O)cc(-c3ccccc3)oc2c1)(c1ccccc1C)c1ccccc1C [3g] | 1770 | 279 | 351 | – | 320 | 291 | 230 | 180 | 265 | – | 341 | 216 | 417 | 243 | 308 | 569
O=c1cc(-c2ccccc2)oc2cc(OCCCC[P+](c3ccccc3)(c3ccccc3)c3ccccn3)cc(O)c12 [3h] | 1540 | 189 | 1640 | 1120 | 376 | 293 | 510 | 130 | 650 | 608 | 320 | 418 | 1130 | 801 | 572 | 1640
